Test results: patent publication US20220202905A1, “COMPOSITION FOR PREVENTING OR TREATING NEUROTROPHIC KERATITIS WHICH CONTAINS PACAP PEPTIDE OR STABILIZED PACAP PEPTIDE” (SENJU PHARMACEUTICAL CO., LTD., priority 2019, published 2022)
Square brackets hold non-standard residues; d marks the D form. Peptide text beside a SMILES is read from it. * marks the point of attachment. Ala(1H-tetrazol-5-yl) = N[C@@H](Cc1nnn[nH]1)C(=O)O; Nle = CCCC[C@H](N)C(=O)O; Ms = CS(=O)(=O)*

experiment: Peptide stability test, Tris buffer (pH 7.0), 60° C. storage, HPLC remaining rate; type: physicochemical; conditions: Table 7-2; 100 μM in Tris buffer pH 7.0
Protocol: Peptides 1, 2 and 6 to 9 synthesized in Example 2 were weighed and dissolved in Tris buffer (pH 7.0) to prepare 1.0 mM peptide solutions. Each solution was filtered with a Chromatdisk (product of Merck Millipore, Millex-GV, 0.22 μm). The filtrate was diluted to 100 μM with Tris buffer (pH 7.0) and dispensed into a tube (Protein LoBind Tube by Eppendorf Co.). The prepared peptide solutions were incubated for 1 week or 2 weeks in a 60° C. thermostatic bath to obtain stored samples. A simultaneously prepared sample among the peptide solutions that was not stored was used as a standard sample (initial sample). The standard sample and the stored samples were stored at −30° C. until sample analysis. Each stored sample was measured under the following HPLC analysis conditions 2, and the remaining rate after correction for water for each peptide among the stored samples was calculated in the same manner as Example 3. Guard column: XSelect CSH C18 by Waters Co., 5 μm, 4.6×20 mm Guard Cartridge Detection wavelength: 220 nm Mobile phase A: 0.1% formic acid aqueous solution Mobile phase B: 0.1% acetonitrile formate solution Measuring time: 20 minutes Measuring sample injection rate: 50 μL Flow rate: 1.0 mL/min Column temperature: 40° C. Sample cooler: 25° C. Mobile phase delivery: The mixing ratio of mobile phase A and mobile phase B was varied as shown in Table 5 for linear concentration gradient control. Peptides 12 to 25, 27 and 28 synthesized in Example 2 were weighed and dissolved in Tris buffer (pH 7.0) to prepare 1.0 mM peptide solutions. Each solution was filtered with a Chromatdisk (product of Merck Millipore, Millex-GV, 0.22 μm). The filtrate was diluted to 100 μM with Tris buffer (pH 7.0) and dispensed into a tube (Protein LoBind Tube by Eppendorf Co.). The prepared peptide solutions were incubated for one week or 2 weeks in a 60° C. thermostatic bath to obtain stored samples. A simultaneously prepared sample among the peptide solutions that was not stored was used as a standard sample (initial sample). The standard sample and the stored samples were stored at −30° C. until sample analysis. The remaining rate after correction for water for each peptide among the stored samples was calculated in the same manner as Example 4, and the results are shown in Table 7. Peptides 29 to 34 synthesized in Example 2 were weighed and dissolved in Tris buffer (pH 7.0) to prepare 1.0 mM peptide solutions. Each solution was filtered with a Chromatdisk (product of Merck Millipore, Millex-GV, 0.22 μm). The filtrate was diluted to 100 μM with Tris buffer (pH 7.0) and dispensed into a tube (Protein LoBind Tube by Eppendorf Co.). The prepared peptide solutions were incubated for 2 weeks in a 60° C. thermostatic bath to obtain stored samples. A simultaneously prepared sample among the peptide solutions that was not stored was used as a standard sample (initial sample). The standard sample and the stored samples were stored at −30° C. until sample analysis. The remaining rate after correction for water for each peptide among the stored samples was calculated in the same manner as Example 4, and the results are shown in Table 7-2. Peptide 26 synthesized in Example 2 was weighed and dissolved in Tris buffer (pH 7.0) to prepare a 1.0 mM peptide solution. The solution was filtered with a Chromatdisk (product of Merck Millipore, Millex-GV, 0.22 μm). The filtrate was diluted to 100 μM with Tris buffer (pH 7.0) and dispensed into a tube (Protein LoBind Tube by Eppendorf Co.). The prepared peptide solution was incubated for one week or 2 weeks in a 60° C. thermostatic bath to obtain stored samples. A simultaneously prepared sample among the peptide solutions that was not stored was used as a standard sample (initial sample). The standard sample and the stored sample were stored at −30° C. until sample analysis. […]

Row | SMILES | remaining rate after correction for water, 60° C., 2 weeks preservation
1 | CC[C@H](C)[C@H](NC(=O)[C@H](C)NC(=O)[C@H](Cc1nnn[nH]1)NC(=O)[C@H](CO)NC(=O)[C@H](Cc1c[nH]cn1)NS(C)(=O)=O)C(=O)N[C@@H](Cc1ccccc1)C(=O)N[C@H](C(=O)N[C@@H](Cc1nnn[nH]1)C(=O)N[C@@H](CO)C(=O)N[C@@H](Cc1ccc(O)cc1)C(=O)N[C@@H](CO)C(=O)N[C@@H](CCCNC(=N)N)C(=O)N[C@@H](Cc1ccc(O)cc1)C(=O)N[C@@H](CCCNC(=N)N)C(=O)N[C@@H](CCCCN)C(=O)N[C@@H](CCC(N)=O)C(=O)N[C@@H](CC(C)C)C(=O)N[C@@H](C)C(=O)N[C@H](C(=O)N[C@@H](CCCCN)C(=O)N[C@@H](CCCCN)C(=O)N[C@@H](Cc1ccc(O)cc1)C(=O)N[C@@H](CC(C)C)C(=O)N[C@@H](C)C(=O)N[C@@H](C)C(=O)N[C@H](C(=O)N[C@@H](CC(C)C)C(N)=O)C(C)C)C(C)C)[C@@H](C)O [Peptide 30] (Ms-HS[Ala(1H-tetrazol-5-yl)]AIFT[Ala(1H-tetrazol-5-yl)]SYSRYRKQLAVKKYLAAVL-NH2) | 92.2%

same assay, conditions: Table 7; 100 μM in Tris buffer pH 7.0

Row | SMILES | remaining rate after correction for water, 60° C., 1 week preservation | remaining rate after correction for water, 60° C., 2 weeks preservation
2 | CC[C@H](C)[C@H](NC(=O)CNC(=O)[C@H](Cc1nnn[nH]1)NC(=O)[C@H](CO)NC(=O)[C@H](Cc1c[nH]cn1)NC(C)=O)C(=O)N[C@@H](Cc1ccccc1)C(=O)N[C@H](C(=O)N[C@@H](Cc1nnn[nH]1)C(=O)N[C@@H](CO)C(=O)N[C@@H](Cc1ccc(O)cc1)C(=O)N[C@@H](C)C(=O)N[C@@H](CCCNC(=N)N)C(=O)N[C@@H](Cc1ccc(O)cc1)C(=O)N[C@@H](CCCNC(=N)N)C(=O)N[C@@H](CCCCN)C(=O)N[C@@H](CCC(N)=O)C(=O)N[C@@H](CC(C)C)C(=O)N[C@@H](C)C(=O)N[C@H](C(=O)N[C@@H](CCCCN)C(=O)N[C@@H](CCCCN)C(=O)N[C@@H](Cc1ccc(O)cc1)C(=O)N[C@@H](CC(C)C)C(=O)N[C@@H](C)C(=O)N[C@@H](C)C(=O)N[C@H](C(=O)N[C@@H](CC(C)C)C(N)=O)C(C)C)C(C)C)[C@@H](C)O [Peptide 16] (Ac-HS[Ala(1H-tetrazol-5-yl)]GIFT[Ala(1H-tetrazol-5-yl)]SYARYRKQLAVKKYLAAVL-NH2) | 98.1% | 93.5%
3 | CC[C@H](C)[C@H](NC(=O)CNC(=O)[C@H](Cc1nnn[nH]1)NC(=O)[C@H](CO)NC(=O)[C@H](Cc1c[nH]cn1)NC(C)=O)C(=O)N[C@@H](Cc1ccccc1)C(=O)N[C@H](C(=O)N[C@@H](Cc1nnn[nH]1)C(=O)N[C@@H](CO)C(=O)N[C@@H](Cc1ccc(O)cc1)C(=O)N[C@@H](CO)C(=O)N[C@@H](CCCNC(=N)N)C(=O)N[C@@H](Cc1ccc(O)cc1)C(=O)N[C@@H](CCCNC(=N)N)C(=O)N[C@@H](CCCCN)C(=O)N[C@@H](C)C(=O)N[C@@H](C)C(=O)N[C@@H](C)C(=O)N[C@H](C(=O)N[C@@H](CCCCN)C(=O)N[C@@H](CCCCN)C(=O)N[C@@H](Cc1ccc(O)cc1)C(=O)N[C@@H](CC(C)C)C(=O)N[C@@H](C)C(=O)N[C@@H](C)C(=O)N[C@H](C(=O)N[C@@H](CC(C)C)C(N)=O)C(C)C)C(C)C)[C@@H](C)O [Peptide 28] (Ac-HS[Ala(1H-tetrazol-5-yl)]GIFT[Ala(1H-tetrazol-5-yl)]SYSRYRKAAAVKKYLAAVL-NH2) | 94.6% | 90.5%
4 | CC[C@H](C)[C@H](NC(=O)CNC(=O)[C@H](Cc1nnn[nH]1)NC(=O)[C@H](CO)NC(=O)[C@H](Cc1c[nH]cn1)NC(C)=O)C(=O)N[C@@H](Cc1ccccc1)C(=O)N[C@H](C(=O)N[C@@H](Cc1nnn[nH]1)C(=O)N[C@@H](CO)C(=O)N[C@@H](Cc1ccc(O)cc1)C(=O)N[C@@H](CO)C(=O)N[C@@H](CCCNC(=N)N)C(=O)N[C@@H](Cc1ccc(O)cc1)C(=O)N[C@@H](CCCNC(=N)N)C(=O)N[C@@H](CCCCN)C(=O)N[C@@H](C)C(=O)N[C@@H](CC(C)C)C(=O)N[C@@H](C)C(=O)N[C@H](C(=O)N[C@@H](CCCCN)C(=O)N[C@@H](CCCCN)C(=O)N[C@@H](Cc1ccc(O)cc1)C(=O)N[C@@H](CC(C)C)C(=O)N[C@@H](C)C(=O)N[C@@H](C)C(=O)N[C@H](C(=O)N[C@@H](CC(C)C)C(N)=O)C(C)C)C(C)C)[C@@H](C)O [Peptide 17] (Ac-HS[Ala(1H-tetrazol-5-yl)]GIFT[Ala(1H-tetrazol-5-yl)]SYSRYRKALAVKKYLAAVL-NH2) | 97.8% | 93.4%
5 | CC[C@H](C)[C@H](NC(=O)CNC(=O)[C@H](Cc1nnn[nH]1)NC(=O)[C@H](C)NC(=O)[C@H](Cc1c[nH]cn1)NC(C)=O)C(=O)N[C@@H](Cc1ccccc1)C(=O)N[C@H](C(=O)N[C@@H](Cc1nnn[nH]1)C(=O)N[C@@H](CO)C(=O)N[C@@H](Cc1ccc(O)cc1)C(=O)N[C@@H](CO)C(=O)N[C@@H](CCCNC(=N)N)C(=O)N[C@@H](Cc1ccc(O)cc1)C(=O)N[C@@H](CCCNC(=N)N)C(=O)N[C@@H](CCCCN)C(=O)N[C@@H](CCC(N)=O)C(=O)N[C@@H](CC(C)C)C(=O)N[C@@H](C)C(=O)N[C@H](C(=O)N[C@@H](CCCCN)C(=O)N[C@@H](CCCCN)C(=O)N[C@@H](Cc1ccc(O)cc1)C(=O)N[C@@H](CC(C)C)C(=O)N[C@@H](C)C(=O)N[C@@H](C)C(=O)N[C@H](C(=O)N[C@@H](CC(C)C)C(N)=O)C(C)C)C(C)C)[C@@H](C)O [Peptide 14] (Ac-HA[Ala(1H-tetrazol-5-yl)]GIFT[Ala(1H-tetrazol-5-yl)]SYSRYRKQLAVKKYLAAVL-NH2) | 96.7% | 94.5%
6 | CC[C@H](C)[C@H](NC(=O)CNC(=O)[C@H](Cc1nnn[nH]1)NC(=O)[C@H](C)NC(=O)[C@H](Cc1c[nH]cn1)NC(C)=O)C(=O)N[C@@H](Cc1ccccc1)C(=O)N[C@H](C(=O)N[C@@H](Cc1nnn[nH]1)C(=O)N[C@@H](CO)C(=O)N[C@@H](Cc1ccc(O)cc1)C(=O)N[C@@H](CO)C(=O)N[C@@H](CCCNC(=N)N)C(=O)N[C@@H](Cc1ccc(O)cc1)C(=O)N[C@@H](CCCNC(=N)N)C(=O)N[C@@H](CCCCN)C(=O)N[C@@H](CCC(N)=O)C(=O)N[C@@H](C)C(=O)N[C@@H](C)C(=O)N[C@H](C(=O)N[C@@H](CCCCN)C(=O)N[C@@H](CCCCN)C(=O)N[C@@H](Cc1ccc(O)cc1)C(=O)N[C@@H](CC(C)C)C(=O)N[C@@H](C)C(=O)N[C@@H](C)C(=O)N[C@H](C(=O)N[C@@H](CC(C)C)C(N)=O)C(C)C)C(C)C)[C@@H](C)O [Peptide 25] (Ac-HA[Ala(1H-tetrazol-5-yl)]GIFT[Ala(1H-tetrazol-5-yl)]SYSRYRKQAAVKKYLAAVL-NH2) | 95.8% | 91.2%

same assay, conditions: buffer, 336 h

Row | SMILES | expected remaining rate for 2 years at room temperature
7 | CCCC[C@H](NC(=O)[C@H](CCC(N)=O)NC(=O)[C@H](CCCCN)NC(=O)[C@H](CCCNC(=N)N)NC(=O)[C@H](Cc1ccc(O)cc1)NC(=O)[C@H](CCCNC(=N)N)NC(=O)[C@H](CO)NC(=O)[C@H](Cc1ccc(O)cc1)NC(=O)[C@H](CO)NC(=O)[C@H](Cc1nnn[nH]1)NC(=O)[C@@H](NC(=O)[C@H](Cc1ccccc1)NC(=O)[C@@H](NC(=O)CNC(=O)[C@H](Cc1nnn[nH]1)NC(=O)[C@H](CO)NC(=O)[C@H](Cc1c[nH]cn1)NC(C)=O)[C@@H](C)CC)[C@@H](C)O)C(=O)N[C@@H](C)C(=O)N[C@H](C(=O)N[C@@H](CCCCN)C(=O)N[C@@H](CCCCN)C(=O)N[C@@H](Cc1ccc(O)cc1)C(=O)N[C@@H](CC(C)C)C(=O)N[C@@H](C)C(=O)N[C@@H](C)C(=O)N[C@H](C(=O)N[C@@H](CC(C)C)C(N)=O)C(C)C)C(C)C [Peptide 8] (Ac-HS[Ala(1H-tetrazol-5-yl)]GIFT[Ala(1H-tetrazol-5-yl)]SYSRYRKQ[Nle]AVKKYLAAVL-NH2) | ≥ 90%
